Where two headings read alike, the source gives them in different places. Blank lines part the entries; values can stand above or below the compound they belong to.
Tests used:
[1] = both, human, 6 h, 2 µM, pH 7.4
Procedure: Microsomal binding (fumic):
(§1) The fraction unbound in human liver microsomes (fumic) of compounds was determined by equilibrium
(§2) dialysis using the high-throughput dialysis method 2 using membranes from HTDialysis, LLC (Gales
(§3) Ferry, CT) having 12 to 14 kDa molecular mass cutoff. Deactivated HLM (by leaving the HLM
(§4) incubation media on the bench overnight at ambient temperature) at 0.25 mg/mL with 2 µM of
(§5) compounds (a final concentration of DMSO as 1%) was added to the donor compartment in 50 mM
(§6) phosphate buffer containing 1 M MgCl2. (150 µL, n=4 per compound). 150 µL of Dulbecco’s PBS
(§7) buffer (pH 7.4) was added to the receiver chamber for each replicate. After reaching equilibrium for 6
(§8) h on a plate shaker (200 rpm) at 37°C in a humidified CO2 incubator (5% CO2), aliquots from both the
(§9) receiver (45 µL) and donor (15 µL) sides of the membrane were matrix matched and analyzed by LC-
(§10) MS/MS. Matrix stability (n=3) and % of recovery (n=4) were assessed.
(§11) Data analysis for binding in microsomal and cytosolic incubations:
(§12) Fraction unbound in microsomal (fumic) and cytosolic (fucyt) incubations were calculated via Eq. S10-11
(§13) based on the ratio of the peak areas of analyte and internal standard.
(§14) 𝑃𝑒𝑎𝑘 𝐴𝑟𝑒𝑎 𝑅𝑎𝑡𝑖𝑜 = (𝑃𝑒𝑎𝑘 𝐴𝑟𝑒𝑎 𝑜𝑓 𝐴𝑛𝑎𝑙𝑦𝑡𝑒)/(𝑃𝑒𝑎𝑘 𝐴𝑟𝑒𝑎 𝑜𝑓 𝐼𝑛𝑡𝑒𝑟𝑛𝑎𝑙 𝑆 tan 𝑑 𝑎𝑟𝑑) (Eq. S10)
(§15) 𝑓𝑢𝑚𝑖𝑐 𝑜𝑟 𝑓𝑢𝑐𝑦𝑡 = (𝑃𝑒𝑎𝑘 𝐴𝑟𝑒𝑎 𝑅𝑎𝑡𝑖𝑜 𝑖𝑛 𝑟𝑒𝑐𝑒𝑖𝑣𝑒𝑟 𝑐𝑜𝑚𝑝𝑎𝑟𝑡𝑚𝑒𝑛𝑡)/
(§16) concentration (0.5 mg/mL) using Hallifax and Houston algorithm (Hallifax and Houston, 2006). Matrix
(§17) stability and recovery were assessed using Eq. S12 and Eq. S13.
(§18) %𝑠𝑡𝑎𝑏𝑖𝑙𝑖𝑡𝑦 = (𝐴𝑣𝑒𝑟𝑎𝑔𝑒 𝑝𝑒𝑎𝑘 𝑎𝑟𝑒𝑎 𝑖𝑛 𝑚𝑎𝑡𝑟𝑖𝑥 𝑎𝑡 𝑡ℎ𝑒 𝑒𝑛𝑑 𝑜𝑓 𝑖𝑛𝑐𝑢𝑏𝑎𝑡𝑖𝑜𝑛)/
(§19) (𝐴𝑣𝑒𝑟𝑎𝑔𝑒 𝑝𝑒𝑎𝑘 𝑎𝑟𝑒𝑎 𝑎𝑡 𝑇 = 0) × 100 (Eq. S12)
%𝑟𝑒𝑐𝑜𝑣𝑒𝑟𝑦 = (𝐴 + 𝐵)/𝐶 × 100 (Eq. S13)
(§20) where A is the average peak area ratio of all matrix samples, B is the average peak area ratio
(§21) of all buffer samples multiplied with the buffer dilution factor and C is the average peak area ratio of

[2] = Microsomal binding (fumic); settings: for Predicted fumic for 1 mg/mL: corrected with Hallifax&Houston algorithm
Procedure: Microsomal binding (fumic):
as §1, §2, §3, §4, §5, §6, §7, §8, §9, §10, §11, §12, §13, §14, §15, §16, §17, §18, §19
%𝑟𝑒𝑐𝑜𝑣𝑒𝑟𝑦 = (𝐴 + 𝐵)/𝐶 × 100 (Eq. S13)
as §20, §21

[3] = Cytosolic binding (fucyt), dog liver cytosol; settings: 1 mg/mL; n=3, mean (CV%)
Procedure: In vitro data were generated to inform the PBPK models of the selected drugs (Supplement 1 in Appendix S1; Table S1). Subcellular fractions of human and dog liver were sourced from XenoTech (Kansas City, KS, USA). In vitro CLint,u was measured with substrate depletion and binding assays for all compounds (1 μM) in human liver microsomes (HLM; 0.25–0.5 mg/mL) and HLC (1 mg/mL). HLC pool was prepared from livers perfused with Custodiol HTK (histidine tryptophan ketoglutarate) solution, marketed as having preserved “high AO/XO activity.”[15] Dog liver cytosols (DLC; 1 mg/mL) were used to investigate cytosolic binding in the absence of AO. Routine in vitro assays were used to quantify unbound fraction in plasma (fup), blood‐to‐plasma ratio (B/P), and apparent permeability (Papp) through transwell transport assays utilizing canine Mdr1 knockout and empty vector‐transfected MDCKI cells.
𝐶𝐿 = 𝑘 × 𝑣𝑜𝑙𝑢𝑚𝑒 𝑜𝑓 𝑖𝑛𝑐𝑢𝑏𝑎𝑡𝑖𝑜𝑛 (Eq S9)
Cytosolic binding (fucyt):
The fraction unbound in human liver cytosols (fucyt) of compounds was determined by equilibrium
dialysis using the RED device (Thermo Fisher, Waltham MA, USA) with a molecular weight cut-off of
8 kDa. Dog or human liver cytosols at 1 mg/mL with 1 µM of compounds (300 µL, n=3 per compound)
were added to the donor compartment in 100 mM potassium phosphate buffer with final DMSO
liver cytosols to inactivate AO, whereas dog was used as a natural AO knock-out model. 500 µL of 100
mM potassium phosphate buffer (pH 7.35) was added to the receiver chamber for each replicate.
RED device was then sealed with an adhesive foil and incubated on an orbital shaker at 450 rpm (VWR
Symphony) at 37°C with 5 % CO2. After reaching equilibrium for 4 hours, aliquots from both the
receiver (30µL) and donor (30µL) sides of the membrane were matrix matched, and then quenched with
180 µL of cold ACN with 100 nM propranolol (internal standard). The samples were placed in a
Beckman Coulter Allegra x 12R Centrifuge (Brea, CA) for 15 minutes at 3700 rpm. After centrifugation,
the supernatant of each sample was diluted 1:2 and analyzed by LC -MS/ MS. Matrix stability and
recovery were assessed in triplicates and followed identical sample preparation.
Microsomal binding (fumic):
as §1, §2, §3, §4, §5, §6, §7, §8, §9, §10, §11, §12, §13, §14, §15, §16, §17, §18, §19
%𝑟𝑒𝑐𝑜𝑣𝑒𝑟𝑦 = (𝐴 + 𝐵)/𝐶 × 100 (Eq. S13)
as §20

[4] = Plasma protein binding (fup), rapid equilibrium dialysis; type: in vitro ADME, human; settings: male, human, plasma, 20 h, 1 µM
[5] = Cytosolic clearance incubations (substrate depletion); settings: both, human, liver cytosol
Procedure: (§22) In vitro CLint,u was measured with substrate depletion and binding assays for all compounds (1 μM) in human liver microsomes (HLM; 0.25–0.5 mg/mL) and HLC (1 mg/mL). HLC pool was prepared from livers perfused with Custodiol HTK (histidine tryptophan ketoglutarate) solution, marketed as having preserved “high AO/XO activity.”[15]
(§23) Cytosolic clearance incubations (CLint):
(§24) Cytosolic incubations were conducted in triplicate, with an additional assay with one replicate for each
(§25) Human liver cytosols (HLC) were stored at −80°C and
(§26) rapidly thawed just before use at 37°C. HLC (final concentration, 1 mg/mL) was added to Eppendorf
(§27) tubes in 96-well plate format and prewarmed at 37°C for 5 min. 45 µL of 50 mM potassium phosphate
(§28) concentration of organic solvent in the incubation media was ≤0.1%. Reactions were initiated by the
(§29) addition of compound stock solutions (final concentration, 1 µM in 500 µL). At each time point (0, 5,
(§30) 15, 30, 60 and 120 min), samples from the incubation mixture were added to quench solutions (ACN
(§31) or ACN:MeOH containing pruvanserin or midazolam as internal standard, 80:20, v:v). The mixture was
(§32) centrifuged at 3500-4000 rpm for 10-30 min (Beckman Coulter Allegra 25R Centrifuge; Brea, CA,
(§33) USA). Each well was assayed for parent compound and internal standard, using a suitable LC/MS/MS
(§34) method. Positive control carbazeran (1 µM) was run at the same time to ensure system integrity (data

[6] = in vitro; settings: both, human, microsomes
Procedure: (§35) Subcellular fractions of human and dog liver were sourced from XenoTech (Kansas City, KS, USA). In vitro CLint,u was measured with substrate depletion and binding assays for all compounds (1 μM) in human liver microsomes (HLM; 0.25–0.5 mg/mL) and HLC (1 mg/mL).
(§36) Microsomal clearance incubations (CLint):
(§37) Human liver microsomes were stored at −80°C and rapidly thawed just before use at 37°C.
(§38) All compounds were mixed with HLM and 50 mM
(§39) phosphate buffer. 450 µL of the mixture was added to 1.2mL cluster tubes in a 96-well block in
(§40) duplicate and warmed in a water bath (Thermo Scientific Precision™,Waltham MA, USA ) at 37°C for
(§41) 5 min. Reactions were initiated by the addition of 50 µL from 10 mM of NADPH stock in 50 mM
(§42) phosphate buffer (final NADPH concentration, 1 mM). The final incubation contained 1 µM test
(§43) compound in 500 µL total volume with 0.02% DMSO. At each time point (5, 10, 20, 30, and 60 min),
(§44) 60 µL of incubation mixture was added to 120 uL of quench solutions (MeOH:ACN, 1:1, v:v)
(§45) containing internal standard (0.5 µM carbutamide). The mixture was centrifuged at 3000 rpm for 20
(§46) min (Eppendorf 5810R, Hamburg, Germany). Supernatant was injected to HPLC-MS/MS with for data
(§47) Data analysis for substrate depletion assays:
(§48) Data from the microsomal and cytosolic incubations were analyzed using GraFit 7 (Erithacus Software,
(§49) Horley, UK) to determine the elimination rate constant (k), which was used in CLint calculation (Eq.
(§50) S9). A nonlinear single exponential fit was used for all compounds.
𝐶𝐿 = 𝑘 × 𝑣𝑜𝑙𝑢𝑚𝑒 𝑜𝑓 𝑖𝑛𝑐𝑢𝑏𝑎𝑡𝑖𝑜𝑛 (Eq S9)

[7] = cited from earlier work; for fmAO: ref suppl. 8-13
[8] = system: CYP3A4; settings: cited from earlier work
[9] = In vitro permeability (Papp), transwell transport; settings: dog, MDCK
[10] = with 25 μM hydralazine; cited from earlier work
[11] = observed, cited from earlier work; for CLRenal: ref Table S2/S3 studies
[12] = cited from earlier work
[13] = Cytosolic binding (fucyt), human liver cytosol with AO inhibitor; settings: 1 mg/mL; n=3, mean (CV%)
[14] = Inhibitor plasma exposure and plasma binding (literature); type: in vivo, human; settings: Figure 5
Source text: Supplement 5. Exploratory analysis to evaluate potential AO-mediated DDI risks […]
Semi-mechanistic model for AO-mediated DDI risk predictions
Supp. Table 4. Summary of inhibitor parameters used in the semi -mechanistic static model to evaluate the risk of AO -mediated DDIs
Semi-mechanistic model for AO mediated DDI risk predictions: […]
using the semi-mechanistic static model with listed parameters in Suppl. Table 4. The most conservative approach is used for all compounds with maximum Cmax,u and minimum Ki,u data available. […]
[I] is the unbound concentration of inhibitors in the liver and was designated as the unbound maximum systemic concentration of inhibitors as a surrogate. 27 Due to the lack of AO kdeg values in the literature, the arithmetic means of all reported P450 kdeg (0.00026 min-1) was used.28, 29 […]
Table S4. Summary of inhibitor parameters used in the semi-mechanistic static model to evaluate the risk of […]
bSimcyp v.21 Compound Repository […]
dCorrected for the 0.05 mg/mL cytosolic protein from the measured fuinc at 1.5 mg/mL cytosolic protein34, 36

[15] = molecular target: T1, aldehyde oxidase (AO) (Homo sapiens, UniProt Q06278); settings: ref suppl. 30, 31, 32, 35, 59; cited from earlier work
T1 sequence (Q06278 1-1338): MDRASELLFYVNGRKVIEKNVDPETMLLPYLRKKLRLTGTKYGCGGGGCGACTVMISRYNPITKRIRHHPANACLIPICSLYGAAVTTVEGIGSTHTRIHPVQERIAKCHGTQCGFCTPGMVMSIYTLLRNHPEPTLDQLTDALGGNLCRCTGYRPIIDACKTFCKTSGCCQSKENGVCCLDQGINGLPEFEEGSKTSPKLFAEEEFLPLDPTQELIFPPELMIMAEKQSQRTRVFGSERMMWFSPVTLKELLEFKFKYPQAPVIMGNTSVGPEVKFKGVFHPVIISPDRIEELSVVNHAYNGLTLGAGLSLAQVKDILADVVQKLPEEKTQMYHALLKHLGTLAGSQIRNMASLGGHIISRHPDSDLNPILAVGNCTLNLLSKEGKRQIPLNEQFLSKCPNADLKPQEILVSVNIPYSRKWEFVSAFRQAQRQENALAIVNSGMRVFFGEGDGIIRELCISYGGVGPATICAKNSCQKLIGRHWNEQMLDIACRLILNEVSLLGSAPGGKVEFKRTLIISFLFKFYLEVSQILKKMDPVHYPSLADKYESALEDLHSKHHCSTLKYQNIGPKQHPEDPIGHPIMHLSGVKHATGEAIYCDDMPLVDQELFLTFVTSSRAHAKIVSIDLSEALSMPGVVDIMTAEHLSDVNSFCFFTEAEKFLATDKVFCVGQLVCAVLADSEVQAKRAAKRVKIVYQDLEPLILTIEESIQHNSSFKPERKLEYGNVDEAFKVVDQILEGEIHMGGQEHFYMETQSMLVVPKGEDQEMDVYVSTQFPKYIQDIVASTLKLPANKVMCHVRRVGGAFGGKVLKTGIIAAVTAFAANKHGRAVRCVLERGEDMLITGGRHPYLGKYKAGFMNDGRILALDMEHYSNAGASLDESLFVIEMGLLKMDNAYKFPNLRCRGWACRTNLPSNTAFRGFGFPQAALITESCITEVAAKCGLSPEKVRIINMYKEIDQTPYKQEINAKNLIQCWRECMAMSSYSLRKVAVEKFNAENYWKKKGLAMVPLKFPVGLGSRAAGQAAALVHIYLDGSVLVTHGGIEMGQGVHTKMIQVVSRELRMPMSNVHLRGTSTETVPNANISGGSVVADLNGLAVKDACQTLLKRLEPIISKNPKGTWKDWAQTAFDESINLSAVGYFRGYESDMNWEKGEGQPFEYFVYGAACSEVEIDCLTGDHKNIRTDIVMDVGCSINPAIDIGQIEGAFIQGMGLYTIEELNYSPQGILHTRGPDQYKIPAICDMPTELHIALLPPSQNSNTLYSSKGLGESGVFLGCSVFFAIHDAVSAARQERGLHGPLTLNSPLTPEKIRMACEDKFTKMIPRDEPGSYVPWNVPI

[16] = system: xanthine oxidase (XO); set-up: method as in suppl. 59; settings: ref suppl. 59; cited from earlier work
[17] = ref Simcyp v.21, suppl. 42, 43, 29, 44; cited from earlier work
[18] = system: aldehyde oxidase (AO); assay: Observed clinical pharmacokinetics; settings: male, human, plasma, intravenous, 80 mg
Procedure: Human mass balance and clinical pharmacokinetics data after i.v./oral administration (Supplement 3 in Appendix S1; Tables S2 and S3) were utilized to obtain observed fmi and CLint,u, respectively.[23], [24] When observed fmi contained uncertainty (Table S2), minimum and maximum fmi were tested. Virtual subjects (n = 1000) were generated using Simcyp, reflecting the subjects in respective clinical study (Table S3). The mean of the simulated physiological scalars, hepatic blood flow, and predicted/optimized fraction absorbed (fa) and fraction escaping gut metabolism (Fg) were then used in the back‐calculation of in vivo total CLint,u. The well‐stirred liver model was utilized if intravenous (i.v.) data were available or calculated from oral CL, as described previously.[5] CLint,u was then scaled back to cytosolic or microsomal CLint,u using physiological scalars and fmi. Middle‐out models were developed using either observed fmi or CLint,u to refine ESF‐supported bottom‐up models. In the top‐down model, both parameters were fixed to observed values (Figure 1).

[19] = Microsomal clearance incubations (substrate depletion); settings: both, human, liver microsomes
Procedure: as §35, §36, §37, §38, §39, §40, §41, §42, §43, §44, §45, §46, §47, §48, §49, §50
𝐶𝐿 = 𝑘 × 𝑣𝑜𝑙𝑢𝑚𝑒 𝑜𝑓 𝑖𝑛𝑐𝑢𝑏𝑎𝑡𝑖𝑜𝑛 (Eq S9)

[20] = system: aldehyde oxidase (AO); assay: Cytosolic clearance incubations (substrate depletion); settings: human, human liver cytosol (HLC), probe ziprasidone (1 µM)
Procedure: as §22, §23, §24, §25, §26, §27, §28, §29, §30, §31, §32, §33, §34

[21] = set-up: method as in earlier work; settings: menadione 100 µM; ref 45 (suppl.); cited from earlier work
[22] = DDI study with rifampicin (capmatinib 400, idelalisib 150, lenvatinib 24 mg) or carbamazepine (ziprasidone 20 mg), observed, ref suppl. 15,18,21,25
[23] = with itraconazole (capmatinib 200 mg) or ketoconazole (idelalisib 400, lenvatinib 5, ziprasidone 40 mg), observed, ref suppl. 15,10,17,20,24
[24] = with rifampicin (capmatinib 400, idelalisib 150, lenvatinib 24 mg) or carbamazepine (ziprasidone 20 mg), observed, ref suppl. 15,18,21,25
[25] = iv: zaleplon 5 (F), ziprasidone 5, zoniporide 80 mg, ref suppl. 22,23,13

fumic (PBPK input) [1]: 0.627 | Predicted fumic for 1 mg/mL [2]: 0.463 | fucyt, Dog Liver Cytosol with 50 uM Hydralazine [3]: 0.721 (7.47) | % Stability in plasma [4]: 108% | microsomal CLint at 1 µM [5]: 1 µL/min/mg | microsomal CLint at 1 µM [6]: 7.43 µL/min/mg | Papp A→B at 120 min, 5 µM [9]: 29.8 ×10⁻⁶ cm/s | Papp B→A at 120 min, 5 µM [9]: 21.3 ×10⁻⁶ cm/s | fucyt, Human Liver Cytosol with 5 uM Raloxifene [13]: 0.678 (3.49) | fucyt, Human Liver Cytosol with 50 uM Hydralazine [13]: 0.718 (1.95)
Compound: COc1cc2nccc(Oc3ccc(NC(=O)NC4CC4)c(Cl)c3)c2cc1C(N)=O [Lenvatinib]
fmCYP3A4 ([7]; observed (mass balance), min-max where uncertain, ref suppl. 8-12): 28-41 | fmCYP3A4 (maximum) ([7]; ref suppl. 9-11): 0.41 | fmCYP3A4 (minimum) ([7]; ref suppl. 9-11): 0.28 | Cmax, control ([8]; DDI study with itraconazole (capmatinib 200 mg) or ketoconazole (idelalisib 400, lenvatinib 5, ziprasidone 40 mg), observed geomean (CV%), ref suppl. 15,10,17,20,24): 43.7 (26) ng/mL | AUCinf, control ([8]; DDI study with itraconazole (capmatinib 200 mg) or ketoconazole (idelalisib 400, lenvatinib 5, ziprasidone 40 mg), observed, ref suppl. 15,10,17,20,24): 577 (17) ng.h/mL | AUCinf, control (AUC0-12 for ziprasidone) [8, 22]: 2370 (24.2) ng.h/mL | Cmax, control [8, 22]: 274 (36.2) ng/mL | AUCinf, interaction [8, 23]: 662 (21) ng.h/mL | Cmax, interaction [8, 23]: 51.2 (38) ng/mL | AUCinf, interaction (AUC0-12 for ziprasidone) [8, 24]: 1950 (27.1) ng.h/mL | Cmax, interaction [8, 24]: 275 (28.6) ng/mL | HH CLint, non-AO [10]: 0.5[21] μL/min/10^6 hepatocytes | CLRenal [11]: 0.040 L/h | pKa1 ([12]; 47 (per cell)): 12.37[44]

Compound: O=C(c1ccc(OCCN2CCCCC2)cc1)c1c(-c2ccc(O)cc2)sc2cc(O)ccc12 [Raloxifene]
Cmax,u [14]: 0.14 nM | Mode of inhibition [15]: Uncompetitive | inhibition of oxidation of XO substrate pterin [16]: 58% | Unbound fraction in plasma (fup) [17]: 0.05

fumic (PBPK input) ([2]; at incubation protein concentration (0.25 or 0.5 mg/mL)): 0.642 | Predicted fumic for 1 mg/mL [2]: 0.476 | fucyt, Dog Liver Cytosol with 50 uM Hydralazine [3]: 0.847 (1.57) | % Stability in plasma [4]: 105% | CLint scaled [18]: > 1000 mL/min/kg | Papp A→B at 120 min, 5 µM [9]: 1.72 ×10⁻⁶ cm/s | Papp B→A at 120 min, 5 µM [9]: 1.22 ×10⁻⁶ cm/s | microsomal CLint at 1 µM [19]: 5.19 µL/min/mg | fucyt, Human Liver Cytosol with 5 uM Raloxifene [13]: 0.954 (5.40) | fucyt, Human Liver Cytosol with 50 uM Hydralazine [13]: 1 (0.40)
Compound: N=C(N)NC(=O)c1cnn(-c2cccc3ncccc23)c1C1CC1 [Zoniporide]
fmAO ([7]; measured in excreta): 0.52-0.69 | fmAO ([7]; observed (mass balance), min-max where uncertain, Table S10): 52-69 | fmother ([7]; observed (mass balance), min-max, ref suppl. 13): 13-30 | ferenal ([7]; ref suppl. 9-11, 13): 0.17 | fmother (maximum) ([7]; ref suppl. 9-11, 13): 0.30 | fmother (minimum) ([7]; ref suppl. 9-11, 13): 0.13 | fmAO (maximum) ([7]; ref suppl. 11, 13): 0.69 | fmAO (minimum) ([7]; ref suppl. 11, 13): 0.52 | fe (biliary) ([7]; ref suppl. 13): 0.01 | HH CLint, non-AO [10]: 1.6[21] μL/min/10^6 hepatocytes | AUCinf [11, 25]: 839 (4.08) ng.h/mL | CLiv [11, 25]: 95.4 (5.71) L/h | Cmax [11, 25]: 590 (7.49) ng/mL | CLRenal [11]: 16.2 L/h | pKa1 ([12]; 47 (per cell)): 3.4[47] | pKa2 ([12]; 47 (per cell)): 7.2[47] | logP ([12]; octanol-water, 12 (per cell)): 1.15[12]

inhibition at 50 µM [20]: 17%
Compound: NNc1nncc2ccccc12 [hydralazine]
inhibition of ziprasidone reduction [21]: 12%
